e = 2'-O-(2-methoxyethyl) (MOE); d = 2'-deoxy (DNA)
Experiments:
[1] = test system: BJ, B16-F10, T47D, T47Dp53 and HeLa cells; test: Cell cycle assay (propidium iodide flow cytometry), cell line panel; format: cell-based; settings: 150 nM, 72 hours (Table 29)
DIO mice = test: Diet-induced obesity (DIO) mice; format: in vivo; settings: 25 mg/kg s.c. twice weekly
mir-15a pri-miRNA = mir-15a pri-miRNA expression in T47D cells (real-time RT-PCR); format: cell-based, human; settings: real-time RT-PCR
How it was run: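 T47D cells transfected with 100 nM uniform 2′-MOE or gapmer oligomers. Pri-miRNA measured by real-time RT-PCR with a mir-15a-specific primer/probe set, normalized to 5.8S rRNA, expressed as percentage of untreated control RNA levels.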

Row | Substance | percentage of cells in the G2/M phase [1] | percentage of cells with hypodiploid DNA content (subG1) [1] | liver toxicity (plasma transaminase levels, weekly) (DIO mice) | mir-15a pri-miRNA expression % UTC (mir-15a pri-miRNA) [% UTC]
1 | CTAGTGGTCCTAAACATTTCAC (chemistry not given here) [ISIS 327878, uniform 2′-MOE PS; targets mir-203] | increased percentage of cells in the G2/M phase | increased percentage of cells with hypodiploid DNA content | did not appear to cause liver toxicity | –
2 | 129690 (antisense TTAGAATACGTCGCGTTATG; sugars from the 5' end e5 d10 e5, all phosphorothioate, methylation of C not given here) [compound 129690] | – | – | – | 121
